Measured values reported in article PMC12860872, “Preclinical evaluation of DOTAGA.Glu.(FAPI)2 and DO3A.Glu.(FAPI)2 as theranostics with human dosimetry extrapolation to lutetium-177 and terbium-161 analogs” (European Journal of Nuclear Medicine and Molecular Imaging, 2025).
“And” between values parts separate entries of the source, which are not always exact repeats. Identical values can stand only once.

Key:
[1] = test system: FAP; set-up: method as in Martin et al. 2023 (15); conditions: enzymatic assay; ref Martin et al. 2023 (15); cited from earlier work
[2] = test system: DPP8; set-up: method as in Martin et al. 2023 (15); conditions: ref Martin et al. 2023 (15); cited from earlier work
[3] = test system: DPP9; set-up: method as in Martin et al. 2023 (15); conditions: ref Martin et al. 2023 (15); cited from earlier work
[4] = test system: PREP; set-up: method as in Martin et al. 2023 (15); conditions: ref Martin et al. 2023 (15); cited from earlier work
[5] = test system: PC3-mice; test: Biodistribution in PC3-mice incl. blocking; format: in vivo, mouse
Protocol: Male athymic Balb/C nude mice (6 weeks/20–25 g) were implanted with PC3 cells (3.5 × 10^6/100 µL PBS) into their right shoulder to develop tumors. The animals were used for biodistribution and PET/SPECT/CT imaging studies, once tumors reached 250–300 mm^3.
All mice were euthanized with intraperitoneal injection of pentobarbital (150 mg/kg), and selected organs were dissected, weighed, and measured for radioactivity using a gamma-counter. Results are expressed as % injected activity per gram tissue (% I.A./g), presented as mean ± SD (n = 3–4).

[6] = test system: DPP4; set-up: method as in Martin et al. 2023 (15); conditions: ref Martin et al. 2023 (15); cited from earlier work
[7] = target: T1, FAP (Homo sapiens, UniProt Q12884); test: Saturation binding on FAP+ CAFs; conditions: listed as 68/natGa-DOTAGA.Glu.(FAPI)2
T1 construct: the CAF cells overexpressing FAP were seeded at a density of 0.8-1 million cells per well; host or cells: hTERT PF179T prostate cancer-associated fibroblasts
T1 sequence (Q12884 1-760): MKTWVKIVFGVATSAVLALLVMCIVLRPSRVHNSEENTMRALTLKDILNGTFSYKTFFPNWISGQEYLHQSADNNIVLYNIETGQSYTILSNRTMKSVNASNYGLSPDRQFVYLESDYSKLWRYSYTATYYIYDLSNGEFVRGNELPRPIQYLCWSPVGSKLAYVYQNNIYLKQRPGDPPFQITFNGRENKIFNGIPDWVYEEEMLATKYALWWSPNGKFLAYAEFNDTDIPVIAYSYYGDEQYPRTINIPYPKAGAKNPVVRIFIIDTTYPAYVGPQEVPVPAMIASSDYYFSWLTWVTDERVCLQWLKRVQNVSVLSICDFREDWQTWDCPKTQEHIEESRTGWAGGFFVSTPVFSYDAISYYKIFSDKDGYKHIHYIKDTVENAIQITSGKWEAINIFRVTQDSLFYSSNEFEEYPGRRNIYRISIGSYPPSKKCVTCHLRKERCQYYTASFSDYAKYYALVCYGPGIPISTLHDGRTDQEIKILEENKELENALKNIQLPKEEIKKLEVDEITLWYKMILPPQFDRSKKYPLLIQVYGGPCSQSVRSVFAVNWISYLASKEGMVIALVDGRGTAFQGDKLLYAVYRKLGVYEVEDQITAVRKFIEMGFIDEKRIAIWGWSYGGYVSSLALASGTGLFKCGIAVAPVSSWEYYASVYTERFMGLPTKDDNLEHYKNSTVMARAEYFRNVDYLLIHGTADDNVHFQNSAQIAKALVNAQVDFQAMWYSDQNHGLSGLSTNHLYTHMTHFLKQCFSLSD
Protocol: For receptor saturation studies, FAP^+ CAFs were incubated with 0.1 to 10 nM of the radioligands. For internalization studies, approximately 2.5 pmol of the radioligands were added to CAFs followed by incubation for 15, 30, 60, 90, 120, 180 and 240 min for the ^68Ga-labeled or 30, 60, 120, 240 and 360 min for the ^177Lu-labeled radioligands at 37 °C, 5% CO2. For the externalization studies, approximately 2.5 pmol of the ^177Lu-labeled radioligands were added to CAFs followed by incubation for 2 h at 37 °C, 5% CO2. The amount of externalized activity was measured at 0, 10, 20, 30, 60, 120, 240, and 1440 min (Supplemental Data).
For receptor saturation analysis, the CAF cells overexpressing FAP were seeded at a density of 0.8-1 million cells per well in 6-well plates, pre-coated with BME (Cultrex Reduced Growth Factor Basement Membrane Extract, RGF BME, R&D System, Minneapolis, USA) to enhance cell attachment. The cells were incubated overnight with medium (EMEM supplemented and containing 10% FBS, 100 U/mL penicillin and 100 μg/mL streptomycin). The next day, the medium was removed and the cells were incubated for 30 minutes at 37 °C, with 0.8 mL of fresh medium. Afterwards, the plates were placed on ice for 30 minutes followed by incubation with increasing concentrations of ^68/natGa- and ^177/natLu-labelled DOTAGA.Glu.(FAPI)2 and DO3A.Glu.( FAPI)2 (0.1-10 nM final concentration in the wells). After the addition of the radioligands, the cells were incubated for 120 minutes at 4 °C. Non-specific binding was determined in the presence of UAMC1110 at a final concentration of 1 μM. After the completion of the incubation, the cells were washed twice with ice-cold PBS, followed by solubilization with 1 M NaOH. The cell-associated radioactivity was measured using a gamma-counter. Specific binding was plotted against the total molar concentration of the added radiotracer. The Kd values and the concentration of the radioligand required to saturate the receptors (Bmax) were determined by nonlinear regression using GraphPad (Prism 8 Graph Pad Software, San Diego, CA). For all the cell studies the values are normalized for 1x10^6 cells per well and all data are from two independent experiments with triplicates in each experiment.

[8] = PC3-model, labeled with gallium-68
[9] = PC3-model, labeled with lutetium-177
[10] = PC3-mice, Blocking 1h (20 nmol unlabeled precursor)

Structure (SMILES): N#C[C@@H]1CC(F)(F)CN1C(=O)CNC(=O)c1ccnc2ccccc12 [UAMC-1110, reference compound]
- IC50 [1]: 0.43 ± 0.02 nM
- IC50 [2]: > 10000 nM

Structure (SMILES): N#C[C@@H]1CC(F)(F)CN1C(=O)CNC(=O)c1ccnc2ccc(OCCCCNC(=O)CC[C@H](NC(=O)CCC(C(=O)O)N3CCN(CC(=O)O)CCN(CC(=O)O)CCN(CC(=O)O)CC3)C(=O)NCCCCOc3ccc4nccc(C(=O)NCC(=O)N5CC(F)(F)C[C@H]5C#N)c4c3)cc12 (stereo partly drawn) [DOTAGA.Glu.(FAPI)2]
- IC50 [3]: 83 ± 1.5 nM
- IC50 [4]: 590 ± 100 nM
- IC50 [1]: 0.26 ± 0.04 nM
- tumor uptake [5, 8]: ~ 20%
- tumor uptake [5, 9]: ~ 16%
- IC50 [6]: 1190 ± 80 nM
- IC50 [2]: 29 ± 4 nM

Structure (SMILES): N#C[C@@H]1CC(F)(F)CN1C(=O)CNC(=O)c1ccnc2ccc(OCCCCNC(=O)CC[C@H](NC(=O)CCC(C(=O)O)N3CCN(CC(=O)[O-])CCN(CC(=O)[O-])CCN(CC(=O)[O-])CC3)C(=O)NCCCCOc3ccc4nccc(C(=O)NCC(=O)N5CC(F)(F)C[C@H]5C#N)c4c3)cc12.[Lu+3] (stereo partly drawn) [[^natLu]Lu-DOTAGA.Glu.(FAPi)2]
- IC50 [3]: 190 ± 10 nM
- IC50 [4]: 430 ± 160 nM
- IC50 [1]: 0.33 ± 0.02 nM
- IC50 [6]: 650 ± 40 nM
- IC50 [2]: 220 ± 20 nM

Structure (SMILES): N#C[C@@H]1CC(F)(F)CN1C(=O)CNC(=O)c1ccnc2ccc(OCCCCNC(=O)CC[C@H](NC(=O)CCC(C(=O)O)N3CCN(CC(=O)[O-])CCN(CC(=O)[O-])CCN(CC(=O)[O-])CC3)C(=O)NCCCCOc3ccc4nccc(C(=O)NCC(=O)N5CC(F)(F)C[C@H]5C#N)c4c3)cc12.[68Ga+3] (stereo partly drawn) [[^68Ga]Ga-DOTAGA.Glu.(FAPI)2]
- Uptake in Adrenal ([5]; PC3-mice, 1 h p.i.): 3.6±0.6 %I.A./g
- Uptake in Blood ([5]; PC3-mice, 1 h p.i.): 3.5 ± 0.2 %I.A./g
- Uptake in Bone ([5]; PC3-mice, 1 h p.i.): 4.9±0.8 %I.A./g
- Uptake in Gallbladder ([5]; PC3-mice, 1 h p.i.): 3.2±0.6 %I.A./g
- Uptake in Heart ([5]; PC3-mice, 1 h p.i.): 1.6±0.2 %I.A./g
- Uptake in Intestine ([5]; PC3-mice, 1 h p.i.): 1.4±0.2 %I.A./g
- Uptake in Kidney ([5]; PC3-mice, 1 h p.i.): 8.3±0.7 %I.A./g
- Uptake in Liver ([5]; PC3-mice, 1 h p.i.): 3±0.4 %I.A./g
- Uptake in Lung ([5]; PC3-mice, 1 h p.i.): 3.7±0.6 %I.A./g
- Uptake in Muscle ([5]; PC3-mice, 1 h p.i.): 1.9±0.2 %I.A./g
- Uptake in Pancreas ([5]; PC3-mice, 1 h p.i.): 2.5±0.2 %I.A./g
- Uptake in Salivary glands ([5]; PC3-mice, 1 h p.i.): 8.2±0.5 %I.A./g
- Uptake in Spleen ([5]; PC3-mice, 1 h p.i.): 1.6±0.01 %I.A./g
- Uptake in Stomach ([5]; PC3-mice, 1 h p.i.): 1.3±0.2 %I.A./g
- Uptake in Tumor ([5]; PC3-mice, 1 h p.i.): 18.2 ± 2.3 %I.A./g and 18.2±3.8 %I.A./g
- Uptake in Adrenal ([5]; PC3-mice, 2 h p.i.): 4.2±0.2 %I.A./g
- Uptake in Blood ([5]; PC3-mice, 2 h p.i.): 2.6±0.1 %I.A./g
- Uptake in Bone ([5]; PC3-mice, 2 h p.i.): 6.4±1.2 %I.A./g
- Uptake in Gallbladder ([5]; PC3-mice, 2 h p.i.): 2.3±0.4 %I.A./g
- Uptake in Heart ([5]; PC3-mice, 2 h p.i.): 1±0.01 %I.A./g
- Uptake in Intestine ([5]; PC3-mice, 2 h p.i.): 1±0.03 %I.A./g
- Uptake in Kidney ([5]; PC3-mice, 2 h p.i.): 4.8±0.5 %I.A./g
- Uptake in Liver ([5]; PC3-mice, 2 h p.i.): 1.4±0.04 %I.A./g
- Uptake in Lung ([5]; PC3-mice, 2 h p.i.): 1.7±0.2 %I.A./g
- Uptake in Muscle ([5]; PC3-mice, 2 h p.i.): 1.7±0.3 %I.A./g
- Uptake in Pancreas ([5]; PC3-mice, 2 h p.i.): 2.3±0.1 %I.A./g
- Uptake in Salivary glands ([5]; PC3-mice, 2 h p.i.): 6.5±1.1 %I.A./g
- Uptake in Spleen ([5]; PC3-mice, 2 h p.i.): 1±0.1 %I.A./g
- Uptake in Stomach ([5]; PC3-mice, 2 h p.i.): 0.9±0.04 %I.A./g
- Uptake in Tumor ([5]; PC3-mice, 2 h p.i.): 17.8 ± 0.5 %I.A./g
- Uptake in Adrenal ([5]; PC3-mice, 3 h p.i.): 3.9±2 %I.A./g
- Uptake in Blood ([5]; PC3-mice, 3 h p.i.): 2.5 ± 0.1 %I.A./g
- Uptake in Bone ([5]; PC3-mice, 3 h p.i.): 6.7±0.1 %I.A./g
- Uptake in Gallbladder ([5]; PC3-mice, 3 h p.i.): 2.6±1.1 %I.A./g
- Uptake in Heart ([5]; PC3-mice, 3 h p.i.): 1±0.2 %I.A./g
- Uptake in Intestine ([5]; PC3-mice, 3 h p.i.): 1.1±0.1 %I.A./g
- Uptake in Kidney ([5]; PC3-mice, 3 h p.i.): 4.4±0.4 %I.A./g
- Uptake in Liver ([5]; PC3-mice, 3 h p.i.): 1.6±0.2 %I.A./g
- Uptake in Lung ([5]; PC3-mice, 3 h p.i.): 1.4±0.1 %I.A./g
- Uptake in Muscle ([5]; PC3-mice, 3 h p.i.): 1.6±0.2 %I.A./g
- Uptake in Pancreas ([5]; PC3-mice, 3 h p.i.): 2±0.1 %I.A./g
- Uptake in Salivary glands ([5]; PC3-mice, 3 h p.i.): 6±0.1 %I.A./g
- Uptake in Spleen ([5]; PC3-mice, 3 h p.i.): 1.1±0.2 %I.A./g
- Uptake in Stomach ([5]; PC3-mice, 3 h p.i.): 1±0.1 %I.A./g
- Uptake in Tumor ([5]; PC3-mice, 3 h p.i.): 18.4 ± 2.2 %I.A./g and 18.4±2.1 %I.A./g
- Uptake in Adrenal [5, 10]: 0.7±0.1 %I.A./g
- Uptake in Blood [5, 10]: 1.7±0.5 %I.A./g
- Uptake in Bone [5, 10]: 0.3±0.2 %I.A./g
- Uptake in Gallbladder [5, 10]: 5.5±0.6 %I.A./g
- Uptake in Heart [5, 10]: 0.6±0.1 %I.A./g
- Uptake in Intestine [5, 10]: 0.6±0.3 %I.A./g
- Uptake in Kidney [5, 10]: 5.6±1.8 %I.A./g
- Uptake in Liver [5, 10]: 0.6±0.2 %I.A./g
- Uptake in Lung [5, 10]: 1.3±0.5 %I.A./g
- Uptake in Muscle [5, 10]: 0.2±0.1 %I.A./g
- Uptake in Pancreas [5, 10]: 0.3±0.1 %I.A./g
- Uptake in Salivary glands [5, 10]: 0.7±0.1 %I.A./g
- Uptake in Spleen [5, 10]: 0.5±0.1 %I.A./g
- Uptake in Stomach [5, 10]: 0.5±0.1 %I.A./g
- Uptake in Tumor [5, 10]: 1.4±0.5 %I.A./g
- tumor uptake ([5]; PC3-mice, sustained up to 3 h p.i.): 18–19 %I.A./g
- Kd ([7]; 0.1 to 10 nM radioligand): 0.8 nM and 0.77 nM
- Bmax [7]: 0.7 ± 0.04 nM and 0.67 ± 0.04 nM

Structure (SMILES): N#C[C@@H]1CC(F)(F)CN1C(=O)CNC(=O)c1ccnc2ccc(OCCCCNC(=O)CC[C@H](NC(=O)CN3CCN(CC(=O)O)CCN(CC(=O)O)CCN(CC(=O)O)CC3)C(=O)NCCCCOc3ccc4nccc(C(=O)NCC(=O)N5CC(F)(F)C[C@H]5C#N)c4c3)cc12 [DO3A.Glu.(FAPI)2]
- IC50 [3]: 950 ± 110 nM
- IC50 [4]: 1000 ± 140 nM
- IC50 [1]: 0.6 ± 0.04 nM
- tumor uptake [5, 8]: ~ 20%
- tumor uptake [5, 9]: ~ 16%
- IC50 [6]: 540 ± 60 nM
- IC50 [2]: 1030 ± 180 nM
